{"source": "patent US5808040A", "about": "“L-nucleosides incorporated into polymeric structure for stabilization of oligonucleotides” (priority 1997, dated 1998)", "key": {"EBV": {"test_system": "EBV", "assay": "Inhibitory effect on EBV in H1 cells, bioassay by EBV DP activity in superinfected Raji cells", "type": "cell-based, Epstein-Barr virus", "settings": "EBV ID90 vs H1 cell CD50", "protocol": "(§1) H1 cells were maintained in […] growth for two days prior to the initiation of treatment. The cells were centrifuged at 600 g for 10 min. at room temperature to separate them from the medium containing pre-existing virus particles. The H1 cells were seeded in 24 well plates at a density of 1×10^5 cells per well in 2 ml of fresh medium with or without drug and incubated at 37° C. for 5 days. The medium containing virion was saved and used for evaluating the inhibitory effect of drugs on virus production and infectivity by use of a bioassay. The virion were pelleted from the cell free medium by centrifugation at 45,000 rpm for 90 min. in a SW-50 Ti rotor (Beckman). The virion were resuspended in 1 ml growth medium and then used to infect 1×10^6 Raji cells for 48 hours. Since the level of EBV DP activity in Raji cells post superinfection is proportional to the number of virions added, the EBV specific DP activity induced was able to be measured. The inhibitory drug effect was calculated by comparing the EBV DP activity to multiple dilution controls.\nand compared with controls. Hl cells were treated for 5 days and the\nID90 was determined by bioassay."}, "mitochondrial DNA": {"test_system": "mitochondrial DNA", "assay": "Mitochondrial DNA content in H1 cells (slot blot assay)", "type": "cell-based, human", "settings": "1 mM, 6 days", "protocol": "as §1\nSlot Blot Assay--The amount of mitochondrial DNA was measured by the slot blot method (2). […] The amount of mitochondrial DNA in the treated and non-treated H1 cells was quantified by densitometer (LKB Ultroscan XL)."}, "H1 cells": {"test_system": "H1 cells", "assay": "Cytotoxicity in H1 cells (72 hours, cell count)", "type": "cell-based", "settings": "summary statement, cells not specified", "protocol": "Inhibitory effect of compounds on EBV: The CD50 was performed by\nexposing Hl cells to different concentrations of the compounds in normal\ngrowth medium at 37° C. for 72 hours; the cells were then counted\nand compared with controls. Hl cells were treated for 5 days and the […]"}, "[1]": {"assay": "Clinical chemistry of mouse plasma after L-(-)-FMAU treatment", "type": "in vivo", "settings": "10 or 50 mg/kg bid for thirty days", "protocol": "FIGS. 14-20 provide the clinical chemistry of mouse plasma after administration of L-(-)-FMAU at 10 mg/kg (three mice) or 50 mg/kg (three mice) bid for thirty days."}, "[2]": {"assay": "Clearance of L-(-)-FMAU from plasma and liver of mice after oral administration", "type": "in vivo, mouse", "protocol": "The clearance of L-(-)-FMAU from the plasma and liver of mice after oral administration was evaluated. Mice were […] with L-(-)-FMAU which was tritium labeled (radiospecificity of […]).\nFIG. 11 is a graph of the plasma concentration of L-(-)-FMAU in mice after oral administration 10 over time, and FIG. 12 is a graph of the concentration of L-(-)-FMAU in mouse liver after oral administration over time (cross, 10 mg/kg administered bid (bi-daily) for 30 days prior to pharmacokinetic study and then study carried out on day thirty one on administration of same concentration; dark circle, 50 mg/kg administered bid for 30 days prior to study and then study carried out on day thirty one on administration of same concentration; open circle, 50 mg/kg administered for the first time on the first day of the study).\nAt the times indicated (see FIGS. 10 and 11) the mice were bled from their retro-orbital sinus using heparinized capillaries. The plasma was extracted with trichloroacetic acid and neutralized with freon/trioctylamine. Supernatants were directly counted and the concentration calculated."}, "[3]": {"assay": "Toxicity in BDF1 female mice, change in body weight over thirty days", "type": "in vivo, mouse", "protocol": "FIG. 13a illustrates the change in body weight over thirty days of control BDF1 female mice. FIGS. 13b and 13c illustrate the change in body weight over thirty days of BDF1 female mice dosed with 10 mg/kg (13b) and 50 mg/kg (13c) bid of L-(-)-FMAU. The body weight presented represents the mean and standard deviation of that of five to seven mice."}, "[4]": {"settings": "with the exception of mouse 50-2"}}}
{"smiles": "Nc1nc2c(ncn2COCCO)c(=O)[nH]1", "note": "[ACV]", "values": [{"measurement": "Therapeutic Index (CD50 /ID90)", "setting": "EBV", "result": 20}]}
{"smiles": "CCc1cn([C@@H]2O[C@H](CO)[C@@H](O)[C@@H]2F)c(=O)[nH]c1=O", "note": "[D-FEAU]", "values": [{"measurement": "Therapeutic Index (CD50 /ID90)", "setting": "EBV", "result": 2000}]}
{"smiles": "Nc1nc(=O)n([C@@H]2O[C@H](CO)[C@@H](O)[C@@H]2F)cc1I", "note": "[D-FIAC]", "values": [{"measurement": "Therapeutic Index (CD50 /ID90)", "setting": "EBV", "result": 25}]}
{"smiles": "O=c1[nH]c(=O)n([C@@H]2O[C@H](CO)[C@@H](O)[C@@H]2F)cc1I", "note": "[D-FIAU]", "values": [{"measurement": "Therapeutic Index (CD50 /ID90)", "setting": "EBV", "result": 40}]}
{"smiles": "Cc1cn([C@@H]2O[C@H](CO)[C@@H](O)[C@@H]2F)c(=O)[nH]c1=O", "note": "[D-FMAU]", "values": [{"measurement": "Therapeutic Index (CD50 /ID90)", "setting": "EBV", "result": 50}]}
{"smiles": "Nc1nc2c(ncn2COC(CO)CO)c(=O)[nH]1", "note": "[DHPG]", "values": [{"measurement": "Therapeutic Index (CD50 /ID90)", "setting": "EBV", "result": 15}]}
{"smiles": "CCc1cn([C@H]2O[C@@H](CO)[C@H](O)[C@H]2F)c(=O)[nH]c1=O", "note": "[L-FEAU, 2'-fluoro-5-ethyl-β-L-arabinofuranosyluridine]", "values": [{"measurement": "Therapeutic Index (CD50 /ID90)", "setting": "EBV", "result": 15}]}
{"smiles": "Nc1nc(=O)n([C@H]2O[C@@H](CO)[C@H](O)[C@H]2F)cc1I", "note": "[L-FIAC, 2'-fluoro-5-iodo-β-L-arabinofuranosylcytosine]", "values": [{"measurement": "Therapeutic Index (CD50 /ID90)", "setting": "EBV", "result": "> 40"}]}
{"smiles": "O=c1[nH]c(=O)n([C@H]2O[C@@H](CO)[C@H](O)[C@H]2F)cc1I", "note": "[L-FIAU, 2'-fluoro-5-iodo-β-L-arabinofuranosyluridine]", "values": [{"measurement": "Therapeutic Index (CD50 /ID90)", "setting": "EBV", "result": 12}]}
{"smiles": "Cc1cn([C@H]2O[C@@H](CO)[C@H](O)[C@H]2F)c(=O)[nH]c1=O", "note": "[L-FMAU, 2'-fluoro-5-methyl-β-L-arabinofuranosyluridine]", "values": [{"measurement": "inhibition of mitochondrial DNA content in H1 cells", "setting": "mitochondrial DNA", "result": "No inhibition"}, {"measurement": "cytotoxicity (in words)", "setting": "H1 cells", "result": "low cytotoxicity"}, {"measurement": "lactic acid in mouse plasma", "setting": "[1]", "result": "not significantly different from those of the control mice"}, {"measurement": "lactic dehydrogenase in mouse plasma", "setting": "[1]", "result": "not significantly different from those of the control mice"}, {"measurement": "total bilirubin in mouse plasma", "setting": "[1]", "result": "fall within the normal human range (less than 1.2 mg/dL)"}, {"measurement": "alkaline phosphatase in mouse plasma", "setting": "[1]; normal human level 30-114 U/L", "result": "somewhat higher than the normal human level"}, {"measurement": "ALT (SGPT) in mouse plasma", "setting": "[1]; [4]", "result": "not different from those of the control mice"}, {"measurement": "creatinine in mouse plasma", "setting": "[1]; [4]", "result": "not different from those of the control mice"}, {"measurement": "AST (SGOT) in mouse plasma", "setting": "[1]; with the exception of mouse 50-2 and mouse 10-2", "result": "not different from those of the control mice"}, {"measurement": "Therapeutic Index (CD50 /ID90)", "setting": "EBV", "result": 200}, {"measurement": "time of peak concentration in liver", "setting": "[2]; 10 or 50 mg/kg, liver", "result": "approximately one"}, {"measurement": "clearance from liver", "setting": "[2]; liver", "result": "substantially cleared from both plasma and liver after four hours"}, {"measurement": "clearance from plasma", "setting": "[2]; plasma", "result": "substantially cleared from both plasma and liver after four hours"}, {"measurement": "tolerability", "setting": "[3]; BDF1 female mice, 10 and 50 mg/kg bid, thirty days", "result": "well tolerated"}, {"measurement": "change in body weight", "setting": "[3]; mouse, in vivo", "result": "did not appear to significantly affect the weight of the mice over thirty days"}]}
{"smiles": "Nc1nc2c(ncn2CCC(CO)CO)c(=O)[nH]1", "note": "[PCV]", "values": [{"measurement": "Therapeutic Index (CD50 /ID90)", "setting": "EBV", "result": 25}]}
{"smiles": "O=C(O)P(=O)(O)O", "note": "[PFA]", "values": [{"measurement": "Therapeutic Index (CD50 /ID90)", "setting": "EBV", "result": 16}]}
